Where two headings read alike, the source gives them in different places.
Assays:
Format in all cases: cell-based
[1] = tested on: T-47D cells (PI3Kα-H1047R mutant); test: pAKT (T308) ELISA assay, T-47D; conditions: Homo sapiens, T47D
Experimental: (§1) In another embodiment, the pAKT ELISA Assay was performed by seeding cells onto 96-well plates (Corning, 3904) in their respective growth media at the densities listed in Table 3. Cells were incubated at 37° C., 5% CO2 for 48 h (except MDA-MB-453 cells which were cultured in the absence of CO2). Compounds were serially diluted in DMSO and subsequently diluted in serum-free DMEM. Test compounds were added to cells in serum-free DMEM at a final concentration of 0.3% DMSO and incubated for 3 h. Cells were lysed with 130 μL of ice-cold RIPA lysis buffer (50 mM Tris-HCl, pH 7.5; 0.5% sodium deoxycholic acid; 1% Triton X-100; 0.1% SDS; 150 mM NaCl) with protease and phosphatase inhibitors (1 mM EDTA, 1 mM NaF, 20 mM β-glycerophosphate, 1 mM Na-orthovanadate, Complete-Mini EDTA-free, Roche, 11836170001, and Phosphatase Inhibitor Cocktail I, Sigma, P2850), directly in 96-well plates. Cells were lysed on ice for 60-120 min at 4° C. The supernatants were added directly to capture ELISA plates previously pre-coated with rabbit anti-AKT capture antibody. […] The wells were measured for luminescence using a Wallac plate reader at wavelength of 560 nm. After normalization of pAKT signal to total AKT1 signal, IC50 values were determined relative to the DMSO-treated control.

[2] = tested on: PC3 (PTEN null) cellular model; test: pAKT (T308) ELISA assay, PC3; conditions: Homo sapiens; IGF1 stimulation
Experimental: (§2) Cells were incubated at 37° C., 5% CO2 for 48 h (except MDA-MB-453 cells which were cultured in the absence of CO2). Compounds were serially diluted in DMSO and subsequently diluted in serum-free DMEM. Test compounds were added to cells in serum-free DMEM at a final concentration of 0.3% DMSO and incubated for 3 h. Cells were lysed with 130 μL of ice-cold RIPA lysis buffer (50 mM Tris-HCl, pH 7.5; 0.5% sodium deoxycholic acid; 1% Triton X-100; 0.1% SDS; 150 mM NaCl) with protease and phosphatase inhibitors (1 mM EDTA, 1 mM NaF, 20 mM β-glycerophosphate, 1 mM Na-orthovanadate, Complete-Mini EDTA-free, Roche, 11836170001, and Phosphatase Inhibitor Cocktail I, Sigma, P2850), directly in 96-well plates. Cells were lysed on ice for 60-120 min at 4° C. The supernatants were added directly to capture ELISA plates previously pre-coated with rabbit anti-AKT capture antibody. ELISA assays for pAKT(T308) and total AKT were performed with the pAKT(T308) ELISA kit (Cell Signaling Technology, 7144) and AKT1 ELISA kit (Cell Signaling Technology, 7142). For the pAKT(T308) ELISA, 85 μL of cell lysate was added to each well. For the total AKT1 ELISA, 15 μL of cell lysate and 85 μL of Starting Block buffer (Pierce, 37543) were added to each well.

[3] = tested on: MDA-MB-453 (PI3Kα H1047R); test: pAKT (T308) ELISA assay, MDA-MB-453; conditions: Homo sapiens, PI3KαH1047R, hereg, read-out: Cellular pAKT (T308) IC50 MDA-MB-453
Experimental: as §1

SK-OV-3 (PI3Kα H1047R) = test: pAKT (T308) ELISA assay, SK-OV-3; conditions: Homo sapiens, PI3KαH1047R, IGF1, read-out: Cellular pAKT (T308) IC50 SK-OV-3
Experimental: as §1

[4] = tested on: SK-BR-3 (PI3Kα wild-type); test: pAKT (T308) ELISA assay, SK-BR-3; conditions: Homo sapiens, PI3Kαwt, hereg, read-out: Cellular pAKT (T308) IC50 SK-BR-3
Experimental: as §1

PI3Kα-mutated models = test: Growth factor induced AKT phosphorylation compared across PI3Kα-mutated models; conditions: cell lines of Table 6
Experimental: as §2
Cells were incubated at 37° C., 5% CO2 for 48 h (except MDA-MB-453 cells which were cultured in the absence of CO2). […]

Q: Which IC50 ([1]; IGF1 stimulation, Table 5, read-out: pAKT (T308) IC50 T-47D PI3Kα H1047R IGF1) does the source give for Cc1cc(C(C)Nc2ccccc2)c2nc(N3CCOCC3)cc(=O)n2c1 (stereo not shown) [TGX-221, 7-methyl-2-(4-morpholinyl)-9-[1-(phenylamino)ethyl]-4H-pyrido[1,2-a]pyrimidin-4-one] here?
A: 27.9 µM

Q: What about the IC50 ([1]; PI3KαH1047R, IGF1, Table 6, read-out: Cellular pAKT (T308) IC50 T-47D) of the same compound?
A: 27.9 µM

Q: And the IC50 [2]?
A: 11.2 µM

Q: What about the IC50 [3] of the same compound?
A: > 30 µM

Q: And the IC50 (SK-OV-3 (PI3Kα H1047R))?
A: > 30 µM

Q: And the IC50 [4]?
A: > 30 µM

Q: What about the “effect on PI3Kα mediated activity in these cell models” value (PI3Kα-mutated models) of the same compound?
A: no effect

Source: US20140066431A1, “Benzoxazepines as Inhibitors of PI3K/mTOR and Methods of Their Use and Manufacture” (Exelixis, Inc., priority 2010, published 2014)
